Source: the supplement of paper PMC10307832

Columns and labels:
Assay in all cases: relative viability (nuclei count vs DMSO), 5 days (fraction); higher = more cells survive
[1] = compound: C=CC(=O)N1CCC[C@@H](n2nc(-c3ccc(Oc4ccccc4)cc3)c3c(N)ncnc32)C1 [Ibrutinib] + CCNC(=O)c1noc(-c2cc(C(C)C)c(O)cc2O)c1-c1ccc(CN2CCOCC2)cc1 [Luminespib] (partner 0.01 µM)
Procedure, shortened: (§1)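 Relative viability divides the nuclei count in treated wells by that in vehicle wells. Lung cancer cell lines were seeded in 1536-well plates, dosed by pin tool the next day, and fixed and stained after 5 days in one step with final 0.05% Triton X-100, 1% formaldehyde and 1 ug/ml Hoechst. Dosing was a single drug or a fixed anchor-drug dose plus five library-drug doses (not always all listed) in √10 steps, and values are medians of duplicate plates imaged at 4×.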

[2] = compound: C=CC(=O)N1CCC[C@@H](n2nc(-c3ccc(Oc4ccccc4)cc3)c3c(N)ncnc32)C1 [Ibrutinib] + Nc1nc2[nH]cc(CCc3ccc(C(=O)N[C@@H](CCC(=O)O)C(=O)O)cc3)c2c(=O)[nH]1 [Pemetrexed] (partner 0.2 µM)
Procedure, shortened: as §1

[3] = compound: C=CC(=O)Nc1cc(-n2c(=O)ccc3cnc4ccc(-c5ccc(NS(C)(=O)=O)cc5)cc4c32)ccc1C [BMX-IN-1] + COc1cc2c(Oc3ccc(NC(=O)C4(C(=O)Nc5ccc(F)cc5)CC4)cc3F)ccnc2cc1OCCCN1CCOCC1 [Foretinib] (partner 0.25 µM)
Procedure, shortened: as §1

[4] = compound: C=CCc1cccc(/C=N/NC(=O)CN2CCN(Cc3ccccc3)CC2)c1O [PAC-1] + COc1cccc2cc(-c3nc([C@H]4CC[C@H](C(=O)O)CC4)n4ncnc(N)c34)[nH]c12 [OSI-027] (partner 0.5 µM)
Procedure, shortened: as §1

Cell Line: NCI-H23
- relative viability ([1]; first compound 0.01581 µM): 0.22
- relative viability ([1]; first compound 0.5 µM): 0.248
- relative viability ([2]; first compound 0.005 µM): 0.698
- relative viability ([2]; first compound 0.01581 µM): 0.614
- relative viability ([2]; first compound 0.05 µM): 0.845
- relative viability ([2]; first compound 0.1581 µM): 0.527
- relative viability ([2]; first compound 0.5 µM): 0.812
- relative viability ([3]; first compound 0.02 µM): 1.18
- relative viability ([3]; first compound 0.2 µM): 0.965
- relative viability ([3]; first compound 0.6325 µM): 0.938
- relative viability ([3]; first compound 2 µM): 0.999
- relative viability ([4]; first compound 0.02 µM): 0.629
- relative viability ([4]; first compound 0.06325 µM): 0.493
- relative viability ([4]; first compound 0.2 µM): 0.589
- relative viability ([4]; first compound 2 µM): 0.65
